Where only a bound is given, the exact number is not on record here.

For the assay, the system named is HIV-1 (strain IIIB). The experiment in a line: MT4 Cell Antiviral Assay. The format is cell-based. To be noted: Human immunodeficiency virus 1, 120 h; HIV-1 strain IIIB in MT4 cells, 5 days, Cell Titer-Glo; 50% decrease in HIV-induced cytopathic effect. As for the experimental part:
Antiviral HIV activity and compound-induced cytotoxicity were measured in parallel based on a modified protocol of the propidium iodide based procedure in the human T-cell lymphotropic virus transformed cell line MT4. Aliquots of the test compounds were serially diluted in DMSO plated in 96-well plates. Exponentially growing MT4 cells were harvested and pelleted. Cell pellets were resuspended in fresh medium (RPMI 1640, 10% FCS, and gentamycin. Cell aliquots were infected by the addition of HIV-1 (strain IIIB) diluted to give a viral multiplicity of infection of 300×TCID50/million cells. A similar cell aliquot was diluted with medium to provide a mock-infected control. Cell infection was allowed to proceed for 1 hr at 37° C. in a tissue culture incubator with humidified 5% CO2 atmosphere. After the 1 hr incubation the virus/cell suspensions were diluted with fresh medium, and added to each well of the plate containing pre-diluted compound. Plates were then placed in a tissue culture incubator with humidified 5% CO2 for 5 days. […] The plates were analyzed in an automated plate reader for luminescence.assay. The control and standard used was efavirinz tested over a concentration range of 0.001 to 1 μM in every assay. The expected range of IC50 values for efavirinz is 0.1 to 1 nM.
The antiviral effect of a test compound is reported as an IC50, i.e. the inhibitory concentration that would produce a 50% decrease in the HIV-induced cytopathic effect. This effect is measured by the amount of test compound required to restore 50% of the cell growth of HIV-infected MT4 cells, compared to uninfected MT4 cell controls. IC50 was calculated by RoboSage, Automated Curve Fitting Program.
For each assay plate, the results (of wells containing uninfected cells or infected cells with no compound were averaged, respectively. For measurements of compound-induced cytotoxicty, results from wells containing various compound concentrations and uninfected cells were compared to the average of uninfected cells without compound treatment. Percent of cells remaining is determined by the following formula: Percent of cells remaining=(compound-treated uninfected cells/untreated uninfected cells)×100.
A level of percent of cells remaining of 79% or less indicates a significant level of direct compound-induced cytotoxicity for the compound at that concentration. When this condition occurs the results from the compound-treated infected wells at this concentration are not included in the calculation of IC50.
For measurements of compound antiviral activity, results from wells containing various compound concentrations and infected cells are compared to the average of uninfected and infected cells without compound treatment. Percent inhibition of virus is determined by the following formula: Percent inhibition of virus=(1−((ave. untreated uninfected cells−treated infected cells)/(ave. untreated uninfected cells−ave. untreated infected cells)))×100
A general note: ATP-based viability assays read luminescence as a measure of living cells.
The IC50 is the midpoint of a concentration-inhibition curve. Read a low IC50 as inhibition by little substance. `CC(C)C1=C2[C@H]3CC[C@@H]4[C@@]5(C)CC[C@H](OC(=O)CC(C)(C)C(=O)O)C(C)(C)[C@@H]5CC[C@@]4(C)[C@]3(C)CC[C@@]2(/C=C/C(=O)N[C@H](C)c2ncccn2)CC1=O` [Example 10, 4-(((3aS,5aR,5bR,7aR,9S,11aR,11bR,13aS)-1-Isopropyl-5a,5b,8,8,11a-pentamethyl-2-oxo-3a-((E)-3-oxo-3-(((R)-1-(pyrimidin-2-yl)ethyl)amino)prop-1-en-1-yl)-3,3a,4,5,5a,5b,6,7,7a,8,9,10,11,11a,11b,12,13,13a-octadecahydro-2H-cyclopenta[a]chrysen-9-yl)oxy)-2,2-dimethyl-4-oxobutanoic acid]: the IC50 lay within 0.01 to 0.25 µM. The figure for `CC(C)C1=C2[C@H]3CC[C@@H]4[C@@]5(C)CC[C@H](OC(=O)CC(C)(C)C(=O)O)C(C)(C)[C@@H]5CC[C@@]4(C)[C@]3(C)CC[C@@]2(/C=C/C(=O)N[C@@H](C)c2ccc(Cl)cc2)CC1=O` [Example 6, 4-(((3aS,5aR,5bR,7aR,9S,11aR,11bR,13aS)-3a-((E)-3-(((S)-1-(4-Chlorophenyl)ethyl)amino)-3-oxoprop-1-en-1-yl)-1-isopropyl-5a,5b,8,8,11a-pentamethyl-2-oxo-3,3a,4,5,5a,5b,6,7,7a,8,9,10,11,11a,11b,12,13,13a-octadecahydro-2H-cyclopenta[a]chrysen-9-yl)oxy)-2,2-dimethyl-4-oxobutanoic acid] is 0.01 to 0.25 µM; for `CC(C)C1=C2[C@H]3CC[C@@H]4[C@@]5(C)CC[C@H](OC(=O)CC(C)(C)C(=O)O)C(C)(C)[C@@H]5CC[C@@]4(C)[C@]3(C)CC[C@@]2(/C=C/C(=O)N[C@@H](C)c2ccccc2Cl)CC1=O` [Example 25, 4-(((3aS,5aR,5bR,7aR,9S,11aR,11bR,13aS)-3a-((E)-3-(((S)-1-(2-Chlorophenyl)ethyl)amino)-3-oxoprop-1-en-1-yl)-1-isopropyl-5a,5b,8,8,11a-pentamethyl-2-oxo-3,3a,4,5,5a,5b,6,7,7a,8,9,10,11,11a,11b,12,13,13a-octadecahydro-2H-cyclopenta[a]chrysen-9-yl)oxy)-2,2-dimethyl-4-oxobutanoic acid] it is 0.01 to 0.25 µM; for `CC(C)C1=C2[C@H]3CC[C@@H]4[C@@]5(C)CC[C@H](OC(=O)CC(C)(C)C(=O)O)C(C)(C)[C@@H]5CC[C@@]4(C)[C@]3(C)CC[C@@]2(/C=C/C(=O)Nc2ccc(F)cc2)CC1=O` [Example 17, 4-(((3aS,5aR,5bR,7aR,9S,11aR,11bR,13aS)-3a-((E)-3-((4-Fluorophenyl)amino)-3-oxoprop-1-en-1-yl)-1-isopropyl-5a,5b,8,8,11a-pentamethyl-2-oxo-3,3a,4,5,5a,5b,6,7,7a,8,9,10,11,11a,11b,12,13,13a-octadecahydro-2H-cyclopenta[a]chrysen-9-yl)oxy)-2,2-dimethyl-4-oxobutanoic acid] it is 0.01 to 0.25 µM. The figure for `CC(C)C1=C2[C@H]3CC[C@@H]4[C@@]5(C)CC[C@H](OC(=O)CC(C)(C)C(=O)O)C(C)(C)[C@@H]5CC[C@@]4(C)[C@]3(C)CC[C@@]2(/C=C/C(=O)NC2(c3cccc(Cl)c3)CC2)CC1=O` [Example 24, 4-(((3aS,5aR,5bR,7aR,9S,11aR,11bR,13aS)-3a-((E)-3-((1-(3-Chlorophenyl)cyclopropyl)amino)-3-oxoprop-1-en-1-yl)-1-isopropyl-5a,5b,8,8,11a-pentamethyl-2-oxo-3,3a,4,5,5a,5b,6,7,7a,8,9,10,11,11a,11b,12,13,13a-octadecahydro-2H-cyclopenta[a]chrysen-9-yl)oxy)-2,2-dimethyl-4-oxobutanoic acid] is less than 0.01 µM; for `CC(C)C1=C2[C@H]3CC[C@@H]4[C@@]5(C)CC[C@H](OC(=O)CC(C)(C)C(=O)O)C(C)(C)[C@@H]5CC[C@@]4(C)[C@]3(C)CC[C@@]2(/C=C/C(=O)N[C@@H](C)c2ccccn2)CC1=O` [Example 15, 4-(((3aS,5aR,5bR,7aR,9S,11aR,11bR,13aS)-1-Isopropyl-5a,5b,8,8,11a-pentamethyl-2-oxo-3a-((E)-3-oxo-3-(((S)-1-(pyridin-2-yl)ethyl)amino)prop-1-en-1-yl)-3,3a,4,5,5a,5b,6,7,7a,8,9,10,11,11a,11b,12,13,13a-octadecahydro-2H-cyclopenta[a]chrysen-9-yl)oxy)-2,2-dimethyl-4-oxobutanoic acid] it is 0.01 to 0.25 µM. In the case of `Cc1ccc(NC(=O)/C=C/[C@@]23CC[C@]4(C)[C@H](CC[C@@H]5[C@@]6(C)CC[C@H](OC(=O)CC(C)(C)C(=O)O)C(C)(C)[C@@H]6CC[C@]54C)C2=C(C(C)C)C(=O)C3)cc1` [Example 21, 4-(((3aS,5aR,5bR,7aR,9S,11aR,11bR,13aS)-1-Isopropyl-5a,5b,8,8,11a-pentamethyl-2-oxo-3a-((E)-3-oxo-3-(p-tolylamino)prop-1-en-1-yl)-3,3a,4,5,5a,5b,6,7,7a,8,9,10,11,11a,11b,12,13,13a-octadecahydro-2H-cyclopenta[a]chrysen-9-yl)oxy)-2,2-dimethyl-4-oxobutanoic acid] it was 0.01 to 0.25 µM; in that of `CC(C)C1=C2[C@H]3CC[C@@H]4[C@@]5(C)CC[C@H](OC(=O)CC(C)(C)C(=O)O)C(C)(C)[C@@H]5CC[C@@]4(C)[C@]3(C)CC[C@@]2(/C=C/C(=O)N[C@H](C)c2ccccn2)CC1=O` [Example 14, 4-(((3aS,5aR,5bR,7aR,9S,11aR,11bR,13aS)-1-Isopropyl-5a,5b,8,8,11a-pentamethyl-2-oxo-3a-((E)-3-oxo-3-(((R)-1-(pyridin-2-yl)ethyl)amino)prop-1-en-1-yl)-3,3a,4,5,5a,5b,6,7,7a,8,9,10,11,11a,11b,12,13,13a-octadecahydro-2H-cyclopenta[a]chrysen-9-yl)oxy)-2,2-dimethyl-4-oxobutanoic acid], 0.01 to 0.25 µM.

`CC(C)C1=C2[C@H]3CC[C@@H]4[C@@]5(C)CC[C@H](OC(=O)CC(C)(C)C(=O)O)C(C)(C)[C@@H]5CC[C@@]4(C)[C@]3(C)CC[C@@]2(/C=C/C(=O)N[C@H](C)c2ccncn2)CC1=O` [Example 9, 4-(((3aS,5aR,5bR,7aR,9S,11aR,11bR,13aS)-1-Isopropyl-5a,5b,8,8,11a-pentamethyl-2-oxo-3a-((E)-3-oxo-3-(((R)-1-(pyrimidin-4-yl)ethyl)amino)prop-1-en-1-yl)-3,3a,4,5,5a,5b,6,7,7a,8,9,10,11,11a,11b,12,13,13a-octadecahydro-2H-cyclopenta[a]chrysen-9-yl)oxy)-2,2-dimethyl-4-oxobutanoic acid] yielded an IC50 of 0.01 to 0.25 µM. Regarding `CC(C)C1=C2[C@H]3CC[C@@H]4[C@@]5(C)CC[C@H](OC(=O)CC(C)(C)C(=O)O)C(C)(C)[C@@H]5CC[C@@]4(C)[C@]3(C)CC[C@@]2(/C=C/C(=O)NC2(c3ncc(Cl)cn3)CC2)CC1=O` [Example 26, 4-(((3aS,5aR,5bR,7aR,9S,11aR,11bR,13aS)-3a-((E)-3-((1-(5-Chloropyrimidin-2-yl)cyclopropyl)amino)-3-oxoprop-1-en-1-yl)-1-isopropyl-5a,5b,8,8,11a-pentamethyl-2-oxo-3,3a,4,5,5a,5b,6,7,7a,8,9,10,11,11a,11b,12,13,13a-octadecahydro-2H-cyclopenta[a]chrysen-9-yl)oxy)-2,2-dimethyl-4-oxobutanoic acid], the IC50 was less than 0.01 µM.

The values are drawn from patent publication US9340513B2, “Propenoate derivatives of betulin” (GlaxoSmithKline LLC, priority 2011, dated 2016).
